# Test results: patent publication US11168073B2, “3,3-difluoroallylamines or salts thereof and pharmaceutical compositions comprising the same” (YUHAN CORPORATION, priority 2018, dated 2021)
# Where a name gives a salt, the structure may show the parent alone. Read-outs that look alike come from different tables or passages of the source.
# Legend:
# Assay type in all cases: biochemical
# [1] = target: T1, recombinant human MAO-B (monoamine oxidase-B) (Homo sapiens, UniProt P27338); test: Activity evaluation on recombinant human MAO-B (Amplex Red/HRP-coupled assay, 1 mM benzylamine substrate); settings: read-out: Inhibitory Activity (IC50, nM) MAO-B
# T1 construct: purchased Sigma-Aldrich
# T1 sequence (P27338 1-520): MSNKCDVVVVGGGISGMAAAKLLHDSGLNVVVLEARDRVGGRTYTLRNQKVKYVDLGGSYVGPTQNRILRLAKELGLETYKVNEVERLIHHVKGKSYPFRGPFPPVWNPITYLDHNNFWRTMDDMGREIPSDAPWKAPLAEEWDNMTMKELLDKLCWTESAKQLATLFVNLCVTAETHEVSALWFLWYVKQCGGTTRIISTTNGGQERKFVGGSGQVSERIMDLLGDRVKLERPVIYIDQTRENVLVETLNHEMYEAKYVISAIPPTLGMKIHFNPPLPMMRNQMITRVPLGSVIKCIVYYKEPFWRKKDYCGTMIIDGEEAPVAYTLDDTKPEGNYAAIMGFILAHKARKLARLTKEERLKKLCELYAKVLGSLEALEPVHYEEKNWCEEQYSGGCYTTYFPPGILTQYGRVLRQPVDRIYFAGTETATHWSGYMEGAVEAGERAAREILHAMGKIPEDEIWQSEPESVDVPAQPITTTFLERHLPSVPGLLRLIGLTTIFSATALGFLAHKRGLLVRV
# In short: (§1)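 Enzyme was preincubated with compounds (8-point 1:3 series, final DMSO <1%) 30 min at 37 °C in 50 mM sodium phosphate pH 7.4, then given 200 uM Amplex Red and 1 U/mL HRP with substrate. H2O2-derived resorufin fluorescence (ex 544/em 590 nm) was followed over 1–2 h; IC50 came from 4-parameter logistic fits of signal-rate inhibition versus DMSO control.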
# [2] = target: T2, recombinant human MAO-A (monoamine oxidase-A) (Homo sapiens, UniProt P21397); test: Activity evaluation on recombinant human MAO-A (Amplex Red/HRP-coupled assay, 0.5 mM tyramine substrate); settings: read-out: Inhibitory Activity (IC50, nM) MAO-A
# T2 construct: purchased Sigma-Aldrich
# T2 sequence (P21397 1-527): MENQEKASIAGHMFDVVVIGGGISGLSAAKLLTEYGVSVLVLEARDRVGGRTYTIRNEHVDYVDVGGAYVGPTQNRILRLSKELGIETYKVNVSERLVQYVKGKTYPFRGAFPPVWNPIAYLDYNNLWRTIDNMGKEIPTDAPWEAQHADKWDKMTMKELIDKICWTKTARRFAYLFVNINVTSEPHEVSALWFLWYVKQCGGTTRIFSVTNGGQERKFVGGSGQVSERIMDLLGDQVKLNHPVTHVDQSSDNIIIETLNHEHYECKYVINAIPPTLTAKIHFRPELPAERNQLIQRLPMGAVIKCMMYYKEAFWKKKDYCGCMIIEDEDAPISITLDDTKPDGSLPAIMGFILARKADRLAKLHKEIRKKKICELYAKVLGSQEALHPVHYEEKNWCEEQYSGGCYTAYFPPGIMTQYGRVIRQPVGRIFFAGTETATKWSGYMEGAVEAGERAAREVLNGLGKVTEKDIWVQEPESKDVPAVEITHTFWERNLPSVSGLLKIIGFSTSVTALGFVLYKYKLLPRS
# In short: as §1
# [3] = target: T3, recombinant human VAP-1 (Homo sapiens, UniProt Q16853); test: Activity evaluation on recombinant human VAP-1 (Amplex Red/HRP-coupled hydrogen peroxide assay, benzylamine substrate); settings: read-out: Inhibitory Activity (IC50, nM) human VAP-1
# T3 construct: purchased R&D systems
# T3 sequence (Q16853 1-763): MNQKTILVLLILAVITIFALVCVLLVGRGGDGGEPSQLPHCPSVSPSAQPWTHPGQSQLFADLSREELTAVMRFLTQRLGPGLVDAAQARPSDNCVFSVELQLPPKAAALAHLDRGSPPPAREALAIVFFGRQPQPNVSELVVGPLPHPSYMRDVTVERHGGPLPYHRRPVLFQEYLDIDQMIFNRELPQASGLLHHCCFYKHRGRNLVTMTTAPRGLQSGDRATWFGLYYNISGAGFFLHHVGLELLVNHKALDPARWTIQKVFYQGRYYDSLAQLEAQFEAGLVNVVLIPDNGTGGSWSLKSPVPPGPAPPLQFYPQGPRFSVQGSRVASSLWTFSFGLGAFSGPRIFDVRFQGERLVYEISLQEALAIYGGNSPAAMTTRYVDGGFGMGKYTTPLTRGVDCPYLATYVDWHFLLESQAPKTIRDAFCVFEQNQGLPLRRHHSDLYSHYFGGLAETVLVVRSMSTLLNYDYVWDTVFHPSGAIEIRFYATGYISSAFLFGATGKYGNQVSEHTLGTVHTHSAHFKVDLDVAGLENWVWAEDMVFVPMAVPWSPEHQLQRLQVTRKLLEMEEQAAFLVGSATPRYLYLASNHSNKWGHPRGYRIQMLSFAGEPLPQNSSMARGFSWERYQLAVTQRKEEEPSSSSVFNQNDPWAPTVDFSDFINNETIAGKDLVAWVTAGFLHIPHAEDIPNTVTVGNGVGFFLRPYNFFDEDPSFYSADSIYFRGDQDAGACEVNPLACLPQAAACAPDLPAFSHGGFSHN
# In short: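 Recombinant human VAP-1 in 50 mM sodium phosphate pH 7.4 preincubated 30 min at 37 °C with compound (8-point 1:3 series, <1% DMSO), then 1 mM benzylamine, 200 uM Amplex Red, 1 U/mL HRP added. H2O2-derived resorufin fluorescence (ex 544/em 590) followed 1–2 h; IC50 from four-parameter fit of rate inhibition.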
# [4] = target: T4, recombinant human DAO (diamine oxidase) (Homo sapiens, UniProt P19801); test: Activity evaluation on recombinant human DAO (Amplex Red/HRP-coupled assay, 1 mM putrescine substrate); settings: read-out: Inhibitory Activity (IC50, nM) DAO
# T4 construct: purchased R&D systems
# T4 sequence (P19801 20-751): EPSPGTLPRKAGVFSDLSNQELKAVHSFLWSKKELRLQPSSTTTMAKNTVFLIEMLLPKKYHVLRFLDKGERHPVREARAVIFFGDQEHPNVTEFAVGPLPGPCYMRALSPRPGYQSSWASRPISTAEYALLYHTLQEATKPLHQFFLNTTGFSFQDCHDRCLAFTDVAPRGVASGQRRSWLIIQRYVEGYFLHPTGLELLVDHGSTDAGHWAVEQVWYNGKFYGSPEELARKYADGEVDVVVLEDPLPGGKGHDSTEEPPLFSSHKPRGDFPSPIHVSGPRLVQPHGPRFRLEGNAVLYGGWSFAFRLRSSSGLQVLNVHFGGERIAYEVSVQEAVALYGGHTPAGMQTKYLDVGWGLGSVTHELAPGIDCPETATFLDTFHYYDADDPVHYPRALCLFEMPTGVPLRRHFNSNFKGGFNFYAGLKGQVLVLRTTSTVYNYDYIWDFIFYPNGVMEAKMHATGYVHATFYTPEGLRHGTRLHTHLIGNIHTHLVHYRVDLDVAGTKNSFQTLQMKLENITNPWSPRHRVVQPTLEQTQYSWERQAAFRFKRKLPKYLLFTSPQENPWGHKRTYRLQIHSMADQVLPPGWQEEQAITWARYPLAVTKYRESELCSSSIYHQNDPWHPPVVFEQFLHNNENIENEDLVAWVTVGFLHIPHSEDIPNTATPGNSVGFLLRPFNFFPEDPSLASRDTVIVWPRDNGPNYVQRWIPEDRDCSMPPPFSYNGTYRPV
# In short: as §1
# [5] = recombinant human VAP-1, 30 min preincubation at 37° C., 1 mM benzylamine
# [6] = recombinant human VAP-1, benzylamine substrate
IC50 ([1]; 1 mM benzylamine) [nM],IC50 ([2]; 0.5 mM tyramine) [nM],"IC50 [3, 5] [nM]",IC50 ([4]; 1 mM putrescine) [nM],IC50 ([1]; 1 mM benzylamine substrate) [nM],IC50 ([2]; 0.5 mM tyramine substrate) [nM],"IC50 [3, 6] [nM]",IC50 ([4]; 1 mM putrescine substrate) [nM],Compound
5400,> 100000,0.4,> 10000,–,–,–,–,"CS(=O)(=O)c1cccc(-c2ccc(Cn3cnn(CC(CN)=C(F)F)c3=O)s2)c1 [Example 102, 2-[2-(aminomethyl)-3,3-difluoro-allyl]-4-[[5-(3-methylsulfonylphenyl)-2-thienyl]methyl]-1,2,4-triazol-3-one Trifluoroacetate]"
26000,> 100000,0.2,> 100000,–,–,–,–,"CN(C)c1ccc(-c2ccc(Cn3cnn(CC(CN)=C(F)F)c3=O)s2)cn1 [Example 112, 2-[2-(aminomethyl)-3,3-difluoro-allyl]-4-[[5-[6-(dimethylamino)-3-pyridyl]-2-thienyl]methyl]-1,2,4-triazol-3-one Trifluoroacetate]"
–,–,–,–,> 100000,> 100000,3.4,7400,"CC(=O)N1CCN(c2ccc(-c3csc(Cn4cnn(CC(CN)=C(F)F)c4=O)c3)cc2)CC1 [Example 188, 4-[[4-[4-(4-acetylpiperazin-1-yl)phenyl]-2-thienyl]methyl]-2-[2-(aminomethyl)-3,3-difluoro-allyl]-1,2,4-triazol-3-one Trifluoroacetate]"
9400,> 100000,0.4,7200,–,–,–,–,"NCC(Cn1ncn(Cc2ccc(-c3ccc(C(F)(F)F)nc3)s2)c1=O)=C(F)F [Example 111, 2-[2-(aminomethyl)-3,3-difluoro-allyl]-4-[[5-[6-(trifluoromethyl)-3-pyridyl]-2-thienyl]methyl]-1,2,4-triazol-3-one Trifluoroacetate]"
–,–,–,–,23800,> 100000,3.2,4330,"CS(=O)(=O)c1ccc(-c2cccc(Cn3cnn(CC(CN)=C(F)F)c3=O)c2)cc1 [Example 272, 2-[2-(aminomethyl)-3,3-difluoro-allyl]-4-[[3-(4-methylsulfonylphenyl)phenyl]methyl]-1,2,4-triazol-3-one Trifluoroacetate]"
34,> 100000,0.3,250,–,–,–,–,"NCC(Cn1ncn(-c2ccc(-c3ccc4c(c3)OCO4)nc2)c1=O)=C(F)F [Example 42, 2-[2-(aminomethyl)-3,3-difluoro-allyl]-4-[6-(1,3-benzodioxol-5-yl)-3-pyridyl]-1,2,4-triazol-3-one Trifluoroacetate]"
–,–,–,–,> 100000,> 100000,148,66400,"CN1C(=O)CCc2cc(-c3ccccc3Cn3cnn(CC(CN)=C(F)F)c3=O)ccc21 [Example 284, 6-[2-[[1-[2-(aminomethyl)-3,3-difluoro-allyl]-5-oxo-1,2,4-triazol-4-yl]methyl]phenyl]-1-methyl-3,4-dihydroquinolin-2-one trifluoroacetate]"
–,–,–,–,> 100000,> 100000,0.3,43000,"Cc1cc(C#Cc2cnc3c(c2)NC(=O)CO3)cnc1-n1cnn(CC(CN)=C(F)F)c1=O [Example 247, 7-[2-[6-[1-[2-(aminomethyl)-3,3-difluoro-allyl]-5-oxo-1,2,4-triazol-4-yl]-5-methyl-3-pyridyl]ethynyl]-1H-pyrido[2,3-b][1,4]oxazin-2-one Trifluoroacetate]"
18000,36200,2.5,6300,–,–,–,–,"NCC(Cn1ncn(-c2cccc(-c3ccc4c(c3)OCO4)c2)c1=O)=C(F)F [Example 21, 2-[2-(aminomethyl)-3,3-difluoro-allyl]-4-[3-(1,3-benzodioxol-5-yl)phenyl]-1,2,4-triazol-3-one Trifluoroacetate]"
–,–,–,–,2200,32700,0.9,4600,"Cc1cc(C#Cc2ccc3c(c2)NCCO3)cnc1-n1cnn(CC(CN)=C(F)F)c1=O [Example 243, 2-[2-(aminomethyl)-3,3-difluoro-allyl]-4-[5-[2-(3,4-dihydro-2H-1,4-benzoxazin-6-yl)ethynyl]-3-methyl-2-pyridyl]-1,2,4-triazol-3-one Ditrifluoroacetate]"
–,–,–,–,29000,> 100000,1,4200,"Cc1cc(C#Cc2ccc(N3CCOCC3)nc2)cnc1-n1cnn(CC(CN)=C(F)F)c1=O [Example 242, 2-[2-(aminomethyl)-3,3-difluoro-allyl]-4-[3-methyl-5-[2-(6-morpholino-3-pyridyl)ethynyl]-2-pyridyl]-1,2,4-triazol-3-one Trifluoroacetate]"
–,–,–,–,2900,> 100000,1.8,39300,"CN(C)c1ccc(-c2cccc(Cn3cnn(CC(CN)=C(F)F)c3=O)c2)cn1 [Example 273, 2-[2-(aminomethyl)-3,3-difluoro-allyl]-4-[[3-[6-(dimethylamino)-3-pyridyl]phenyl]methyl]-1,2,4-triazol-3-one Trifluoroacetate]"
